ChEMBL document CHEMBL3217717, “Synthesis and antiproliferative activity of novel erythromycin derivatives” (Medchemcomm, 2010)

Key:
Format in all cases: functional, cell-based
[1] = Cytotoxicity against human SGC7901 cells assessed as growth inhibition after 48 hrs by MTT assay; settings: SGC-7901, 48 h
[2] = system: KB; assay: Cytotoxicity against human KB cells assessed as growth inhibition after 48 hrs by MTT assay
[3] = Cytotoxicity against human HT1080 cells assessed as growth inhibition after 48 hrs by MTT assay; settings: HT-1080, 48 h

| Compound | IC50 [1] | IC50 [2] | IC50 [3] |
| --- | --- | --- | --- |
| CC[C@H]1OC(=O)[C@H](C)[C@@H](O[C@H]2C[C@@](C)(OC)[C@@H](O)[C@H](C)O2)[C@H](C)[C@@H](O[C@@H]2O[C@H](C)C[C@H](N(C)CCN(C)[C@H]3C[C@@H](C)O[C@@H](O[C@@H]4[C@@H](C)[C@H](O[C@H]5C[C@@](C)(OC)[C@@H](O)[C@H](C)O5)[C@@H](C)C(=O)O[C@H](CC)[C@@](C)(O)[C@H](O)[C@@H](C)/C(=N\OCOCCOC)[C@H](C)C[C@@]4(C)O)[C@@H]3O)[C@H]2O)[C@](C)(O)C[C@@H](C)/C(=N/OCOCCOC)[C@H](C)[C@@H](O)[C@]1(C)O | > 100 µM | 5.5 µM | 3.5 µM |
| CC[C@H]1OC(=O)[C@H](C)[C@@H](O[C@H]2C[C@@](C)(OC)[C@@H](O)[C@H](C)O2)[C@H](C)[C@@H](O[C@@H]2O[C@H](C)C[C@H](N(C)CCN(C)[C@H]3C[C@@H](C)O[C@@H](O[C@@H]4[C@@H](C)[C@H](O[C@H]5C[C@@](C)(OC)[C@@H](O)[C@H](C)O5)[C@@H](C)C(=O)O[C@H](CC)[C@@](C)(O)[C@H](O)[C@@H](C)C(=O)[C@H](C)C[C@@]4(C)OC)[C@@H]3O)[C@H]2O)[C@](C)(O)C[C@@H](C)[C@H](O)[C@H](C)[C@@H](O)[C@]1(C)O | 39.8 µM | 28.5 µM | 20.4 µM |
| CC[C@H]1OC(=O)[C@H](C)[C@@H](O[C@H]2C[C@@](C)(OC)[C@@H](O)[C@H](C)O2)[C@H](C)[C@@H](O[C@@H]2O[C@H](C)C[C@H](N(C)CC(=O)N(C)[C@H]3C[C@@H](C)O[C@@H](O[C@@H]4[C@@H](C)[C@H](O[C@H]5C[C@@](C)(OC)[C@@H](O)[C@H](C)O5)[C@@H](C)C(=O)O[C@H](CC)[C@@](C)(O)[C@H](O)[C@@H](C)C(=O)[C@H](C)C[C@@]4(C)OC)[C@@H]3O)[C@H]2O)[C@](C)(OC)C[C@@H](C)C(=O)[C@H](C)[C@@H](O)[C@]1(C)O | 16.2 µM | > 100 µM | 30.9 µM |
| CC[C@H]1OC(=O)[C@H](C)[C@@H](O[C@H]2C[C@@](C)(OC)[C@@H](O)[C@H](C)O2)[C@H](C)[C@@H](O[C@@H]2O[C@H](C)C[C@H](N(C)CCN(C)[C@H]3C[C@@H](C)O[C@@H](O[C@@H]4[C@@H](C)[C@H](O[C@H]5C[C@@](C)(OC)[C@@H](O)[C@H](C)O5)[C@@H](C)C(=O)O[C@H](CC)[C@@](C)(O)[C@H](O)[C@@H](C)/C(=N\OCOCCOC)[C@H](C)C[C@@]4(C)O)[C@@H]3O)[C@H]2O)[C@](C)(O)C[C@@H](C)[C@H](O)[C@H](C)[C@@H](O)[C@]1(C)O | 45.2 µM | 37.8 µM | 21.9 µM |
| CC[C@H]1OC(=O)[C@H](C)[C@@H](O)[C@H](C)[C@@H](O[C@@H]2O[C@H](C)C[C@H](N(C)CCN(C)[C@H]3C[C@@H](C)O[C@@H](O[C@@H]4[C@@H](C)[C@H](O)[C@@H](C)C(=O)O[C@H](CC)[C@@](C)(O)[C@H](O)[C@@H](C)/C(=N\OCOCCOC)[C@H](C)C[C@@]4(C)O)[C@@H]3O)[C@H]2O)[C@](C)(O)C[C@@H](C)/C(=N/OCOCCOC)[C@H](C)[C@@H](O)[C@]1(C)O | > 100 µM | > 100 µM | > 100 µM |
| CC[C@H]1OC(=O)[C@H](C)[C@@H](O)[C@H](C)[C@@H](O[C@@H]2O[C@H](C)C[C@H](N(C)CCN(C)[C@H]3C[C@@H](C)O[C@@H](O[C@@H]4[C@@H](C)[C@H](O)[C@@H](C)C(=O)O[C@H](CC)[C@@](C)(O)[C@H](O)[C@@H](C)C(=O)[C@H](C)C[C@@]4(C)OC)[C@@H]3O)[C@H]2O)[C@](C)(OC)C[C@@H](C)C(=O)[C@H](C)[C@@H](O)[C@]1(C)O | > 100 µM | > 100 µM | > 100 µM |
| CC[C@H]1OC(=O)[C@H](C)[C@@H](O[C@H]2C[C@@](C)(OC)[C@@H](O)[C@H](C)O2)[C@H](C)[C@@H](O[C@@H]2O[C@H](C)C[C@H](N(C)CC(=O)N(C)[C@H]3C[C@@H](C)O[C@@H](O[C@@H]4[C@@H](C)[C@H](O[C@H]5C[C@@](C)(OC)[C@@H](O)[C@H](C)O5)[C@@H](C)C(=O)O[C@H](CC)[C@@](C)(O)[C@H](O)[C@@H](C)C(=O)[C@H](C)C[C@@]4(C)O)[C@@H]3O)[C@H]2O)[C@](C)(O)C[C@@H](C)C(=O)[C@H](C)[C@@H](O)[C@]1(C)O | 26.5 µM | > 100 µM | > 100 µM |
| CC[C@H]1OC(=O)[C@H](C)[C@@H](O[C@H]2C[C@@](C)(OC)[C@@H](O)[C@H](C)O2)[C@H](C)[C@@H](O[C@@H]2O[C@H](C)C[C@H](N(C)CCN(C)[C@H]3C[C@@H](C)O[C@@H](O[C@@H]4[C@@H](C)[C@H](O[C@H]5C[C@@](C)(OC)[C@@H](O)[C@H](C)O5)[C@@H](C)C(=O)O[C@H](CC)[C@@](C)(O)[C@H](O)[C@@H](C)/C(=N\OCOCCOC)[C@H](C)C[C@@]4(C)O)[C@@H]3O)[C@H]2O)[C@](C)(O)C[C@@H](C)/C(=N/O)[C@H](C)[C@@H](O)[C@]1(C)O | 7.2 µM | 18.6 µM | 16.2 µM |
| CC[C@H]1OC(=O)[C@H](C)[C@@H](O[C@H]2C[C@@](C)(OC)[C@@H](O)[C@H](C)O2)[C@H](C)[C@@H](O[C@@H]2O[C@H](C)C[C@H](N(C)CCN(C)[C@H]3C[C@@H](C)O[C@@H](O[C@@H]4[C@@H](C)[C@H](O[C@H]5C[C@@](C)(OC)[C@@H](O)[C@H](C)O5)[C@@H](C)C(=O)O[C@H](CC)[C@@](C)(O)[C@H](O)[C@@H](C)/C(=N\OCOCCOC)[C@H](C)C[C@@]4(C)O)[C@@H]3O)[C@H]2O)[C@](C)(OC)C[C@@H](C)/C(=N/O)[C@H](C)[C@@H](O)[C@]1(C)O | 22.1 µM | 14.7 µM | 6.3 µM |
| CC[C@H]1OC(=O)[C@H](C)[C@@H](O[C@H]2C[C@@](C)(OC)[C@@H](O)[C@H](C)O2)[C@H](C)[C@@H](O[C@@H]2O[C@H](C)C[C@H](N(C)CCN(C)[C@H]3C[C@@H](C)O[C@@H](O[C@@H]4[C@@H](C)[C@H](O[C@H]5C[C@@](C)(OC)[C@@H](O)[C@H](C)O5)[C@@H](C)C(=O)O[C@H](CC)[C@@](C)(O)[C@H](O)[C@@H](C)C(=O)[C@H](C)C[C@@]4(C)OC)[C@@H]3O)[C@H]2O)[C@](C)(OC)C[C@@H](C)C(=O)[C@H](C)[C@@H](O)[C@]1(C)O | 20 µM | 17.7 µM | 8.1 µM |
| CC[C@H]1OC(=O)[C@H](C)[C@@H](O)[C@H](C)[C@@H](O[C@@H]2O[C@H](C)C[C@H](N(C)C(=O)CN(C)[C@H]3C[C@@H](C)O[C@@H](O[C@@H]4[C@@H](C)[C@H](O[C@H]5C[C@@](C)(OC)[C@@H](O)[C@H](C)O5)[C@@H](C)C(=O)O[C@H](CC)[C@@](C)(O)[C@H](O)[C@@H](C)/C(=N\OCOCCOC)[C@H](C)C[C@@]4(C)O)[C@@H]3O)[C@H]2O)[C@](C)(OC)C[C@@H](C)C(=O)[C@H](C)[C@@H](O)[C@]1(C)O | > 100 µM | > 100 µM | > 100 µM |
| CC[C@H]1OC(=O)[C@H](C)[C@@H](O[C@H]2C[C@@](C)(OC)[C@@H](O)[C@H](C)O2)[C@H](C)[C@@H](O[C@@H]2O[C@H](C)C[C@H](N(C)CCN(C)[C@H]3C[C@@H](C)O[C@@H](O[C@@H]4[C@@H](C)[C@H](O[C@H]5C[C@@](C)(OC)[C@@H](O)[C@H](C)O5)[C@@H](C)C(=O)O[C@H](CC)[C@@](C)(O)[C@H](O)[C@@H](C)/C(=N\OCc5cc(OC)c(OC)c(OC)c5)[C@H](C)C[C@@]4(C)O)[C@@H]3O)[C@H]2O)[C@](C)(O)C[C@@H](C)/C(=N/OCc2cc(OC)c(OC)c(OC)c2)[C@H](C)[C@@H](O)[C@]1(C)O | 28.4 µM | 8.3 µM | 3.9 µM |
| CC[C@H]1OC(=O)[C@H](C)[C@@H](O[C@H]2C[C@@](C)(OC)[C@@H](O)[C@H](C)O2)[C@H](C)[C@@H](O[C@@H]2O[C@H](C)C[C@H](N(C)CCN(C)[C@H]3C[C@@H](C)O[C@@H](O[C@@H]4[C@@H](C)[C@H](O[C@H]5C[C@@](C)(OC)[C@@H](O)[C@H](C)O5)[C@@H](C)C(=O)O[C@H](CC)[C@@](C)(O)[C@H](O)[C@@H](C)/C(=N\OCc5cc(OC)c(OC)c(OC)c5)[C@H](C)C[C@@]4(C)O)[C@@H]3O)[C@H]2O)[C@](C)(OC)C[C@@H](C)C(=O)[C@H](C)[C@@H](O)[C@]1(C)O | 17.4 µM | 30.2 µM | 41.5 µM |
| CC[C@H]1OC(=O)[C@H](C)[C@@H](O[C@H]2C[C@@](C)(OC)[C@@H](O)[C@H](C)O2)[C@H](C)[C@@H](O[C@@H]2O[C@H](C)C[C@H](N(C)CC(=O)N(C)[C@H]3C[C@@H](C)O[C@@H](O[C@@H]4[C@@H](C)[C@H](O[C@H]5C[C@@](C)(OC)[C@@H](O)[C@H](C)O5)[C@@H](C)C(=O)O[C@H](CC)[C@@](C)(O)[C@H](O)[C@@H](C)/C(=N/OCOCCOC)[C@H](C)C[C@@]4(C)O)[C@@H]3O)[C@H]2O)[C@](C)(O)C[C@@H](C)/C(=N/OCOCCOC)[C@H](C)[C@@H](O)[C@]1(C)O | 13.3 µM | 28.7 µM | 33.4 µM |
| CCCCCCCCO/N=C1/[C@H](C)C[C@@](C)(O)[C@H](O[C@@H]2O[C@H](C)C[C@H](N(C)CCN(C)[C@H]3C[C@@H](C)O[C@@H](O[C@@H]4[C@@H](C)[C@H](O[C@H]5C[C@@](C)(OC)[C@@H](O)[C@H](C)O5)[C@@H](C)C(=O)O[C@H](CC)[C@@](C)(O)[C@H](O)[C@@H](C)/C(=N\OCCCCCCCC)[C@H](C)C[C@@]4(C)O)[C@@H]3O)[C@H]2O)[C@@H](C)[C@H](O[C@H]2C[C@@](C)(OC)[C@@H](O)[C@H](C)O2)[C@@H](C)C(=O)O[C@H](CC)[C@@](C)(O)[C@H](O)[C@H]1C | > 100 µM | > 100 µM | > 100 µM |
